Test system: Bacillus amyloliquefaciens LN
Assay type: cell-based

Compound | Zone diameter of LN [mm] | sensitivity of LN strain to the antibiotic according to CLSI
Neomycin | 20.9 ± 2.3 | –
Cefoxime | 28.7 ± 7.0 | –
CCn1cc(C(=O)O)c(=O)c2cc(F)c(N3CCNCC3)cc21 [Norfloxacin] | 24.7 ± 0.8 | –
C[C@@H](O)[C@H]1C(=O)N2C(C(=O)O)=C(SCCN=CN)C[C@H]12 [Imipeneem] | 29.5 ± 0.2 | –
CC1(C)S[C@@H]2[C@H](NC(=O)[C@H](N)c3ccccc3)C(=O)N2[C@H]1C(=O)O [Ampicillin] | 16.2 ± 1.0 | no antibiotics sensitivity and resistance
O=C(N[C@H](CO)[C@H](O)c1ccc([N+](=O)[O-])cc1)C(Cl)Cl [Chloramphenicol] | 30.7 ± 5.9 | –
NC[C@H]1O[C@H](O[C@H]2[C@H](O)[C@@H](O[C@H]3O[C@H](CO)[C@@H](O)[C@H](N)[C@H]3O)[C@H](N)C[C@@H]2N)[C@H](N)C[C@@H]1O [Tobramycin] | 22.4 ± 1.8 | –
CO[C@@]1(NC(=O)Cc2cccs2)C(=O)N2C(C(=O)O)=C(COC(N)=O)CS[C@@H]21 [Cefoxitin] | 27.6 ± 1.5 | –
CC[C@H]1OC(=O)[C@H](C)[C@@H](O[C@H]2C[C@@](C)(OC)[C@@H](O)[C@H](C)O2)[C@H](C)[C@@H](O[C@@H]2O[C@H](C)C[C@H](N(C)C)[C@H]2O)[C@](C)(O)C[C@@H](C)C(=O)[C@H](C)[C@@H](O)[C@]1(C)O [Erythromycin] | 24.5 ± 1.5 | –
CN[C@H](CC(C)C)C(=O)N[C@H]1C(=O)N[C@@H](CC(N)=O)C(=O)N[C@H]2C(=O)N[C@H]3C(=O)N[C@H](C(=O)N[C@H](C(=O)O)c4cc(O)cc(O)c4-c4cc3ccc4O)[C@H](O)c3ccc(c(Cl)c3)Oc3cc2cc(c3O[C@@H]2O[C@H](CO)[C@@H](O)[C@H](O)[C@H]2O[C@H]2C[C@](C)(N)[C@H](O)[C@H](C)O2)Oc2ccc(cc2Cl)[C@H]1O [Vancomycin] | 19.0 ± 0.8 | –
NC[C@H]1O[C@H](O[C@H]2[C@H](O)[C@@H](O[C@H]3O[C@H](CO)[C@@H](O)[C@H](N)[C@H]3O)[C@H](N)C[C@@H]2N)[C@H](O)[C@@H](O)[C@@H]1O [Kanamycin] | 34.0 ± 0.4 | –
CN(C)[C@@H]1C(O)=C(C(N)=O)C(=O)[C@@]2(O)C(O)=C3C(=O)c4c(O)cccc4[C@@](C)(O)[C@H]3C[C@@H]12 [Tetracycline] | 15.3 ± 1.1 | –
[H]/N=C(/N)N[C@H]1[C@H](O)[C@@H](O)[C@H](O[C@@H]2O[C@@H](C)[C@](O)(C=O)[C@H]2O[C@@H]2O[C@@H](CO)[C@H](O)[C@@H](O)[C@@H]2NC)[C@@H](N/C(N)=N\[H])[C@@H]1O [Streptomycin] | 14.3 ± 0.5 | no antibiotics sensitivity and resistance
Cn1nnnc1SCC1=C(C(=O)O)N2C(=O)[C@@H](NC(=O)[C@H](O)c3ccccc3)[C@H]2SC1 [Cefamandol] | 38.2 ± 7.1 | –
Gentamicin | 35.0 ± 9.6 | –
Cc1onc(-c2ccccc2)c1C(=O)N[C@@H]1C(=O)N2[C@@H]1SC(C)(C)[C@@H]2C(=O)O [Oxacillin] | 14.3 ± 0.6 | –
O=C1CN(/N=C/c2ccc([N+](=O)[O-])o2)C(=O)N1 [Nitrofurantoin] | 17.3 ± 0.6 | –
NCC[C@H](O)C(=O)N[C@@H]1C[C@H](N)[C@@H](O[C@H]2O[C@H](CN)[C@@H](O)[C@H](O)[C@H]2O)[C@H](O)[C@H]1O[C@H]1O[C@H](CO)[C@@H](O)[C@H](N)[C@H]1O [Amikacin] | 23.0 ± 0.8 | –
CC(=O)OCC1=C(C(=O)O)N2C(=O)[C@@H](NC(=O)Cc3cccs3)[C@H]2SC1 [Cephalothin] | 36.8 ± 1.7 | –
